Columns and labels:
Assay type in all cases: in vivo, human
[1] = system: patients with relapsing multiple sclerosis; assay: Phase 2b dose-finding study: clinical laboratory tests, ECG, vital signs (PCSAs, ALT levels)
Experimental: Temperature, pulse rate, respiratory rate, and blood pressure are assessed. The same method for temperature measurement should be used throughout the study. Blood pressure and pulse measurements are assessed in sitting or supine position with a completely automated device. Same position measurements should be used throughout the study for the same participant. Manual techniques are used only if an automated device is not available. Caffeinated drinks to be avoided before blood pressure measurements. Blood pressure and pulse measurements should be preceded by at least 5 minutes of rest for the participant in a quiet setting without distractions (e.g., television, cell phones). Vital signs (to be taken before blood collection for laboratory tests) consist of 1 pulse, 3 blood pressure measurements (3 consecutive blood pressure readings are recorded at intervals of at least 1 minute), and respiratory rate. The average of the 3 blood pressure readings is recorded.
Single twelve-lead ECGs are obtained as outlined in the SOA (Table 1) using an ECG machine that automatically calculates the heart rate and measures PR, QRS, QT, and QTc intervals. At least one longer rhythm monitoring recording needs to be part of each ECG testing. The ECG is reviewed by a cardiologist for confirmation of abnormality and clinical evaluation. Refer to Example 1.4E for QTc withdrawal criteria and any additional QTc readings that may be necessary.
See Example 1.16 for the list of clinical laboratory tests to be performed and to the SoA (Table 1) for the timing and frequency. The Investigator will review the laboratory report, document this review, and record any clinically relevant changes occurring during the study in the AE section of the eCRF. Clinically significant abnormal laboratory findings are those that are not associated with the underlying disease, unless judged by the Investigator to be more severe than expected for the participant's condition. […] All protocol-required laboratory assessments, as defined in Example 1.16, are conducted in accordance with the laboratory manual and the SoA (Table 1). If laboratory values from non-protocol specified laboratory assessments performed at the institution's local laboratory require a change in participant management or are considered clinically significant by the Investigator (e.g., SAE or AE or dose modification), then the results are recorded in the eCRF.
The following definitions are applied to laboratory parameters, ECG, and vital sign results: • Potentially clinically significant abnormality (PCSA) values are defined as abnormal values considered medically important by the Sponsor according to predefined criteria/thresholds based on literature review and are defined by the Sponsor for clinical laboratory tests and vital signs. • Potentially clinically significant abnormality criteria determine which participants had at least 1 PCSA during the on-treatment period, taking into account all evaluations performed during the on-treatment period including unscheduled or repeated evaluations. The number of all such participants is the numerator for the on-treatment PCSA percentage
Additional tests are performed at any time during the study as determined necessary by the Investigator or required by local regulations.

[2] = system: patients with relapsing multiple sclerosis; assay: Phase 2b trial: incidence of MS relapse during placebo run-out after tolebrutinib
From the text: Unscheduled assessment visits for a suspected multiple sclerosis relapse: Participants are instructed to immediately report new neurological symptoms and recurring or worsening of previous symptoms to the Investigator. Any reported symptoms are to be collected. If a participant reports symptoms that may be consistent with relapse, an unscheduled assessment visit with the Investigator is scheduled as soon as possible (whenever possible within 7 days of onset of the symptoms). The Investigator assesses whether the reported episode is consistent with the definition of MS relapse (see Example 1.6B). If it is consistent with the definition of MS relapse or if there is any doubt and relapse cannot be ruled out, an EDSS assessment should be performed. Unscheduled visit activities are detailed in SoA (Table 1), they need to be adapted, if other pathology than MS is cause for it, and additional examinations or laboratory tests are needed for safety follow up and optimal treatment decisions.
Multiple sclerosis relapse: For the purposes of this study, MS relapse is defined as acute, new neurological symptoms or worsening of previous neurological symptoms with an objective change on neurological examination. Symptoms must: • Be attributable to MS • Last for >24 hours, and • Be present at normal body temperature (i.e., no infection, excessive exercise, or excessively high ambient temperature)
METHODS: As described in Examples 1 and 2, the 16-week, double-blind, crossover trial randomized 130 patients with RMS (1:1:1:1) to tolebrutinib 5, 15, 30, or 60 mg/day. […]
(§1) OUTCOMES: The outcomes evaluated in this example include measuring the incidence of relapse during 4-week placebo run-in and run-out, the number of new Gd-enhancing T1 lesions detected with magnetic resonance imaging (MRI) at Weeks 4, 8 and 16, the number of new or enlarging T2 lesions measured at Weeks 4, 8 and 16, and the plasma CD19+B-cell count measured in the placebo run-out cohort at baseline, 1 hour after the first dose, then at Week 12 and Week 16 (FIG. 3).

[3] = system: patients with relapsing multiple sclerosis; assay: Long-term safety extension: number of new Gd-enhancing T1-hyperintense lesions (MRI); settings: for Number of new Gd-enhancing lesions, mean±SD: LTS W96
Experimental: In the current open-label extension Part B, all patients receive 60 mg/day. MRI outcomes include numbers of new Gd-enhancing and new/enlarging T2 lesions, T2 lesion volume change from baseline, slowly evolving lesions (SEL), and paramagnetic rim lesions (PRL).
The Week 0 value is from the last MRI obtained in the dose-finding study if performed within 6 weeks prior to Day 1 of the long-term safety study For some patients the Week 0 value began after a gap period ranging from 0-21 weeks. For patients where the gap period was 0 weeks, the Week 0 value began immediately after the completion of Week 16 of the dose-finding study. For patients where the gap period was greater than 6 weeks a new MRI was obtained prior to Day 1 of the long-term safety study.
If from Week 16 of the dose-finding study (Cohort 2), it is also included in Week 12. If from Week 16 of the dose-finding study (Cohort 1), it is after 4 weeks placebo run out.

CD19+ B-cell = assay: Phase 2b trial: plasma CD19+ B-cell count in the placebo run-out cohort; settings: Cohort 1
Experimental: as §1

[4] = Cohort 1 (all doses), 4-week placebo run-out after 12 weeks of tolebrutinib

C=CC(=O)N1CCC[C@@H](n2c(=O)n(-c3ccc(Oc4ccccc4)cc3)c3c(N)nccc32)C1 [the BTK inhibitor, (R)-1-(1-acryloylpiperidin-3-yl)-4-amino-3-(4-phenoxyphenyl)-1H-imidazo[4,5-c]pyridin-2(3H)-one]
ALT level of the participant with AESI ([1]; 30 mg group, Week 8 visit): 105 U/L
ALT level of the participant with AESI ([1]; 30 mg group, within 4 days after the Week 8 visit, back to normal level): 32 U/L
ALT level of the participant with AESI ([1]; 60 mg group, Week 4 visit, ULN 34 U/L): 107 U/L
ALT level of the participant with AESI ([1]; 60 mg group, Week 12, back to normal level): 28 U/L
PCSAs related to vital signs, labs and ECGs: relation to dose ([1]; reported in multiple treatment groups): no dose relationship
Patients relapse-free during the placebo run-out [2, 4]: 98.4%
Relapses during the placebo run-out [2, 4]: 1
Rebound disease activity after discontinuation ([2]; patients with RMS, 4-week placebo run-out, preliminary findings): does not induce rebound disease activity
Number of new GD-enhancing T1-Hyperintense lesions, Mean (SD) ([3]; 5/60 mg, Week 0): 1.13 (2.66)
Number of new GD-enhancing T1-Hyperintense lesions, Median ([3]; 5/60 mg, Week 0): 0.00
Number of new GD-enhancing T1-Hyperintense lesions, Mean (SD) ([3]; 5/60 mg, Week 12): 1.03 (2.57)
Number of new GD-enhancing T1-Hyperintense lesions, Median ([3]; 5/60 mg, Week 12): 0.00
Number of new Gd-enhancing lesions, mean±SD ([3]; 5/60-mg arm): 0.85±2.5
Number of new GD-enhancing T1-Hyperintense lesions, Mean (SD) ([3]; 15/60 mg, Week 0): 1.00 (1.88)
Number of new GD-enhancing T1-Hyperintense lesions, Median ([3]; 15/60 mg, Week 0): 0.00
Number of new GD-enhancing T1-Hyperintense lesions, Mean (SD) ([3]; 15/60 mg, Week 12): 0.80 (1.49)
Number of new GD-enhancing T1-Hyperintense lesions, Median ([3]; 15/60 mg, Week 12): 0.00
Number of new Gd-enhancing lesions, mean±SD ([3]; 15/60-mg arm): 0.41±0.91
Number of new GD-enhancing T1-Hyperintense lesions, Mean (SD) ([3]; 30/60 mg, Week 0): 1.68 (4.29)
Number of new GD-enhancing T1-Hyperintense lesions, Median ([3]; 30/60 mg, Week 0): 0.00
Number of new GD-enhancing T1-Hyperintense lesions, Mean (SD) ([3]; 30/60 mg, Week 12): 0.78 (3.36)
Number of new GD-enhancing T1-Hyperintense lesions, Median ([3]; 30/60 mg, Week 12): 0.00
Number of new Gd-enhancing lesions, mean±SD ([3]; 30/60-mg arm): 0.90±2.16
Number of new GD-enhancing T1-Hyperintense lesions, Mean (SD) ([3]; 60/60 mg, Week 0): 0.35 (0.61)
Number of new GD-enhancing T1-Hyperintense lesions, Median ([3]; 60/60 mg, Week 0): 0.00
Number of new GD-enhancing T1-Hyperintense lesions, Mean (SD) ([3]; 60/60 mg, Week 12): 0.13 (0.43)
Number of new GD-enhancing T1-Hyperintense lesions, Median ([3]; 60/60 mg, Week 12): 0.00
Number of new Gd-enhancing lesions, mean±SD ([3]; 60/60-mg arm): 0.31±0.66
Number of new GD-enhancing T1-Hyperintense lesions, Mean (SD) ([3]; All (N = 125), Week 0): 1.04 (2.72)
Number of new GD-enhancing T1-Hyperintense lesions, Median ([3]; All (N = 125), Week 0): 0.00
Number of new GD-enhancing T1-Hyperintense lesions, Mean (SD) ([3]; All (N = 125), Week 12): 0.69 (2.27)
Number of new GD-enhancing T1-Hyperintense lesions, Median ([3]; All (N = 125), Week 12): 0.00
Number of B cells in the peripheral circulation after placebo run-out (CD19+ B-cell; after the 4-week placebo run-out period): returned towards baseline level
Number of B cells in the peripheral circulation after the first dose (CD19+ B-cell; within 1 hour after the first dose): increased
